# Source: patent US8859628B2, “Method for preventing, treating and diagnosing disorders of protein aggregation” (priority 2003, dated 2014)
# Entries after “also recorded” stand apart in the source; their conditions may differ.
# Key:
# [1] = tested on: amyloid-beta peptide; settings: cited from earlier work
# [2] = tested on: TgCRND8 mice; test: Vascular amyloid burden; type: in vivo, mouse; settings: prevention, 6 months of age
# Description: (§1) Cerebral amyloid burden—Brains were removed and one hemisphere was fixed in 4% paraformaldehyde and embedded in paraffin wax in the mid saggital plane. To generate sets of systematic uniform random sections, 5 μm serial sections were collected across the entire hemisphere. Sets of sections at […] intervals were used for analyses (10-14 sections/set). Plaque were identified after antigen retrieval with formic acid, and incubated with primary anti-Aβ antibody (Dako M-0872), followed by secondary antibody (Dako StreptABCcomplex/horseradish kit). End products were visualized with DAB counter-stained with hematoxylin. Amyloid plaque burden was assessed using Leco IA-3001 image analysis software interfaced with Leica microscope and Hitachi KP-M1U CCD video camera. Vascular burden was analyzed similarly and a dissector was used to measure the diameter of affected vessels.
# Alzheimer's disease is characterized by the presence of both parenchymal and vascular amyloid deposits. In untreated 6 month old TgCRND8 mice approximately 0.03% of the brain area is associated with vascular amyloid.
# [3] = tested on: TgCRND8 mice; test: Morris Water Maze, spatial reference memory version, five-day trial paradigm (prevention study); type: in vivo, mouse; settings: 6 months of age
# Description: Age and sex-matched cohorts of TgCRND8 mice and non-transgenic littermates (n=35 in each cohort) were either untreated, or were given a compound of the present invention as indicated below at 30 mg/day/mouse beginning at age of about 6 weeks. The mice were followed for outcome measures cognitive function, brain Aβ levels, brain pathology, and survival at 4 months and 6 months of age.
# Two cohorts entered the study at 6 weeks of age and outcomes were analyzed at 4- and 6-months of age. The body weight, coat characteristics and in cage behavior was monitored. All experiments were performed according to the Canadian Council on Animal Care guidelines.
# (§2) Behavioral tests—After non-spatial pre-training, mice underwent place discrimination training for 5 days with 4 trials per day. Behavioral data was analyzed using a mixed model of factorial analysis of variance (ANOVA) with drug or genotype and training sessions as repeated measure factors.
# The cognitive function of TgCRND8 mice was assessed using the spatial reference memory version of the Morris Water Maze using a five-day trial paradigm (FIGS. 1C-1H). […] The improved performance was also not due to nutritional or caloric effects because body weight, activity, and coat condition were not different between treated and untreated cohorts. […] Gender effects were not significant between any treatment group (p=0.85).
# [4] = tested on: TgCRND8 mice; test: Gliosis quantitation (GFAP astrocytes, CD68 microglia); type: in vivo, mouse; settings: prevention
# Description: Gliosis Quantitation—Five randomly selected, evenly spaced, sagittal sections were collected from paraformaldehyde-fixed and frozen hemispheres of treated and control mice. Sections were immunolabelled for astrocytes with anti-rat GFAP IgG2a (Dako; diluted 1:50) and for microglia with anti-rat CD68 IgG2b (Dako; 1:50).
# Serial sagittal sections were stained with the astrocytic marker glial fibrillary acidic protein (GFAP) and quantitated for percent brain area covered by astrogliosis.
# [5] = tested on: non-Tg littermates; test: Morris Water Maze performance of treated non-Tg littermates; type: in vivo, mouse; settings: treated vs untreated non-Tg
# Description: as §2
# (§3) Behavioral Test—Reversal Study—Mice entered the Morris water maze test with a hidden platform on day one without pretraining. Mice were tested for 3 days with six trials per day. On the fourth day, the platform was removed from the pool and each mouse received one 30-s swim probe trial. On the last day the animals underwent a cue test in order to evaluate swimming ability, eye sight and general cognition. The cue test is composed at the platform being placed in a different quadrant than that used for testing and is tagged with a flag. Animals are allowed 60 s to find the platform. […] Behavioural data was analysed using a mixed model of factorial analysis of variance (ANOVA) with drug or genotype and training sessions as repeated measure factors.
# [6] = tested on: TgCRND8 mice; test: Cerebral amyloid plaque burden (anti-Aβ immunostaining, image analysis); type: in vivo, mouse; settings: for amyloid/plaque burden vs untreated (words) / mean plaque size: prevention
# Description: as §1
# as §1, with “camera.” for “camera. Vascular burden was analyzed similarly and a dissector was used to measure the diameter of affected vessels.”
# [7] = tested on: TgCRND8 mice; test: Cerebral Aβ content (Aβ40 and Aβ42 kits on hemi-brain homogenates); type: in vivo, mouse; design: Total Aβ: unit not given here
# Description: (§4) Plasma and Cerebral Aβ Content—Hemi-brain samples were homogenized in a buffered sucrose solution, followed by either 0.4% diethylamine/100 mM NaCl for soluble Aβ levels or cold formic acid for the isolation of total Aβ. After neutralization the samples were diluted and analyzed for Aβ40 and Aβ42 using commercially available kits (BIOSOURCE International). Each hemisphere was analyzed in triplicate with the mean±SEM reported. Western blot analyses were performed on all fractions using urea gels for Aβ species analyses. Aβ was detected using 6E10 (BIOSOURCE International) and Enhanced Chemiluminenscence (Amersham).
# as §4, with “reported.” for “reported. Western blot analyses were performed on all fractions using urea gels for Aβ species analyses. Aβ was detected using 6E10 (BIOSOURCE International) and Enhanced Chemiluminenscence (Amersham).”
# [8] = tested on: TgCRND8 mice; test: Morris Water Maze, spatial reference memory version, three-day trial paradigm (treatment/reversal study); type: in vivo, mouse; settings: for cognitive function, treated TgCRND8 mice vs non-Tg littermates (words): 1 month treatment from 5 months of age, three-day paradigm
# Description: A cohort entered the study at 5 months of age and outcomes were analyzed at 6-months of age. The body weight, coat characteristics and in cage behavior was monitored. All experiments were performed according to the Canadian Council on Animal Care guidelines.
# as §3
# The cognitive function of TgCRND8 mice was assessed using the spatial reference memory version of the Morris Water Maze using a three day trial paradigm (FIGS. 4-8).
# Behavioural data was analysed using a mixed model of factorial analysis of variance (ANOVA) with drug and genotype as between subject variables and training sessions as within subject variable.
# (§5) In these experiments, the dosage and oral administration of compounds, and the behavioral and neurochemical assays were the same as those employed in the above treatment experiments.
# [9] = tested on: TgCRND8 mice; test: Plasma Aβ levels; type: in vivo, mouse
# Description: as §4
# as §4, with “reported.” for “reported. Western blot analyses were performed on all fractions using urea gels for Aβ species analyses. Aβ was detected using 6E10 (BIOSOURCE International) and Enhanced Chemiluminenscence (Amersham).”
# [10] = biological target: T1, Aβ42 (Homo sapiens, UniProt P05067); settings: cited from earlier work
# T1 construct: The importance of residues 1-42 (Aβ42) in Alzheimer's disease was highlighted
# [11] = tested on: TgCRND8 mice; settings: mouse, in vivo
# Text: Animals were sacrificed after one month of treatment and analysed for pathological outcomes.
# as §5
# [12] = tested on: TgCRND8 mice; test: Survival census (Kaplan-Meier); type: in vivo, mouse; settings: vs untreated TgCRND8
# Description: Survival Census—The probability of survival was assessed by the Kaplan-Meier technique, computing the probability of survival at every occurrence of death, thus making it suitable for small sample sizes. For the analyses of survival, 35 mice were used for each treatment group. The comparison between treatments was reported using the Tarone-Ware test.
# [13] = 1 month treatment from 5 months of age
# [14] = 1 month treatment, 30 mg/mouse/day from 5 months, analyzed at 6 months of age
# [15] = 4 month prevention, 30 mg/mouse/day from 6 weeks of age
# [16] = 6 month prevention, 30 mg/mouse/day from 6 weeks of age
# [17] = 28 days treatment from 5 months of age
# T1 sequence (P05067 672-713 limits assumed): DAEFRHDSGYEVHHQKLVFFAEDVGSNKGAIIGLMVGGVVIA
smiles,measurement,setting,value
"O=P(O)(O)O[C@@H]1[C@H](O)[C@H](O)[C@@H](OP(=O)(O)O)[C@H](OP(=O)(O)O)[C@H]1O [inositol-1,4,5-triphosphate]",ability to inhibit amyloid-beta peptide fibrillogenesis,[1],found not to be effective
"O=P(O)(O)O[C@H]1[C@H](O)[C@@H](O)[C@H](OP(=O)(O)O)[C@@H](O)[C@H]1O [inositol-1,4-bisphosphate]",ability to inhibit amyloid-beta peptide fibrillogenesis,[1],found not to be effective
"OC1C(O)C(O)C(O)C(O)C1O (stereo not drawn) [Epi-Inositol, epi-inositol]",vascular amyloid burden vs untreated (words),[2],No difference could be detected in the vascular amyloid burden
same,"cognitive function, treated vs untreated TgCRND8 mice (words)",[3],performed significantly better than untreated TgCRND8 mice
same,astrogliosis/gliosis vs untreated,[4]; 6 months of age,decrease in astrogliosis
same,"astrogliosis, percent brain area covered (GFAP)",[4]; 6-months of age,0.388±0.039%
same,"microglial activation, % brain area",[4]; 6 months,0.248±0.02%
same,effect on performance of non-Tg mice,[5],had no effect on the performance of non-Tg mice; also recorded: not effected
same,plaque burden vs untreated,[6]; [13],not a significant decrease in the mean plaque size
same,Plaque Area,[6]; [14],459706 ± 49966 μm^2
same,Plaque Count,[6]; [14],1342 ± 114
same,Total Plaque Area/Total Brain Area,[6]; [14],0.134 ± 0.017%
same,Plaque Area,[6]; [15],65042 ± 5199 μm^2
same,Plaque Count,[6]; [15],678 ± 64
same,Total Plaque Area/Total Brain Area,[6]; [15],0.020 ± 0.001%
same,Plaque Area,[6]; [16],380456 ± 13498 μm^2
same,Plaque Count,[6]; [16],979 ± 32
same,Total Plaque Area/Total Brain Area,[6]; [16],0.096 ± 0.04%
same,amyloid/plaque burden vs untreated (words),[6]; 6 months of age,modest effect on amyloid burden
same,mean plaque size,[6]; 4 months of age,95±4.3 μm^2
same,mean plaque size,[6]; 6 months of age,370±9 μm^2
same,Aβ load vs untreated,[7]; [13],Aβ load was significantly decreased
same,Total Aβ,[7]; [14],17271 ± 415
same,Total Aβ,[7]; [15],4802 ± 176
same,Total Aβ,[7]; [16],18464 ± 229
same,brain Aβ levels compared with untreated,"[7]; prevention, 6 months of age",rose to levels similar to those observed in untreated TgCRND8 mice
same,"cognitive function, treated TgCRND8 mice vs non-Tg littermates (words)",[8]; listed as epi-inositol,almost significantly different
same,Plasma Aβ Levels,[9]; 1 month treatment,2158 ± 157 pg/mL
same,effect on plasma Aβ levels in comparison to untreated (words),"[9]; 1 month treatment from 5 months of age, listed as epi-inositol","Neither myo-inositol, epi-inositol nor scyllo-inositol treatment had any effect on plasma Aβ levels"
same,Plasma Aβ Levels,[9]; 4 month prevention,1082 ± 164 pg/mL
same,Plasma Aβ Levels,[9]; 6 month prevention,952 ± 56 pg/mL
same,effect on plasma Aβ levels in comparison to untreated (words),"[9]; prevention, 4- and 6-months of age",Neither epi-inositol nor scyllo-inositol treatment had any effect on plasma Aβ levels
OC1C(O)C(O)C(O)C(O)C1O (stereo not drawn) [chiro-inositol],structural transition from random to β-structure in Aβ42,[10],epi- and scyllo- but not chiro-inositol were able to induce a structural transition
"OC1C(O)C(O)C(O)C(O)C1O (stereo not drawn) [Allo-inositol, allo-inositol]",effects on blood chemistry or organ function,[11],do not exhibit obvious deleterious effects on blood chemistry or organ function
same,ALP,[11]; po,95 ± 16 U/L
same,ALT,[11]; po,44 ± 4 U/L
same,Albumin,[11]; po,32 ± 2 g/L
same,Bilirubin,[11]; po,2.9 ± 3 µmol/L
same,Creatinine,[11]; po,69 ± 64 µmol/L
same,Globulin,[11]; po,17 ± 3 g/L
same,Glucose,[11]; po,10 ± 3 mmol/L
same,Icteria,[11]; po,Normal
same,Lipemia,[11]; po,Normal
same,Total protein,[11]; po,48 ± 2 g/L
same,Urea,[11]; po,18.6 ± 13 mmol/L
same,effect on insoluble Aβ42 or Aβ40 (soluble and insoluble pools),[7]; [17],did not significantly alter
same,reduction of soluble Aβ42,[7]; [17],20%
same,Brain Aβ42 Insoluble,"[7]; allo-inositol study: 1 month treatment (28 days) from 5 months of age, mean ± sem",16336 ± 910 ng/gm wet brain
same,"cognitive function, treated TgCRND8 mice vs non-Tg littermates (words)",[8]; listed as allo-inositol,still significantly different from that of their non-transgenic littermates
same,"cognitive function, treated vs untreated TgCRND8 mice (words)",[8]; [17],performed significantly better than untreated TgCRND8 mice
same,effect on plasma Aβ levels in comparison to untreated (words),"[9]; 1 month treatment from 5 months of age, listed as allo-inositol",indistinguishable from untreated TgCRND8 plasma levels
same,Plasma Aβ Levels,[9]; allo-inositol study: 1 month treatment (28 days) from 5 months of age,2458 ± 95 pg/mL
"OC[C@@H](O)[C@@H](O)[C@H](O)[C@H](O)CO [mannitol, reference compound]","cognitive function, treated TgCRND8 mice vs non-Tg littermates (words)",[3],significantly different from mannitol treated non-Tg littermates
same,"cognitive function, treated vs untreated TgCRND8 mice (words)",[3],had no effect on behavior; also recorded: indistinguishable from untreated TgCRND8 mice
same,"cognitive function, treated vs untreated TgCRND8 mice (words)",[3]; listed as Mannitol,not significantly different from untreated TgCRND8 mice
same,effect on performance of non-Tg mice,[5],had no effect on the behaviour of non-Tg mice
same,amyloid/plaque burden vs untreated (words),[6]; 6 months of age,did not alter the plaque load in TgCRND8 mice
same,amyloid/plaque burden vs untreated (words),"[6]; 6 months of age, listed as Mannitol",indistinguishable from untreated TgCRND8 mice when plaque count was used as a measure of total plaque burden
same,effect on survival of TgCRND8 mice,[12],had no effect on the survival of TgCRND8 mice; also recorded: not significantly different
O=P(O)(O)O[C@@H]1[C@@H](O)[C@H](O)[C@@H](O)[C@H](O)[C@@H]1O [inositol-monophosphate],ability to inhibit amyloid-beta peptide fibrillogenesis,[1],found not to be effective
